In patent publication US20030176456A1, “Methods for reducing alcohol cravings in chronic alcoholics” (priority 2001, published 2003):
Read-outs that look alike come from different tables or passages of the source.

How the values were obtained:
[1] = biological target: T1, α1β3γ2 GABAA receptor (Homo sapiens, UniProt P14867+P18507); experiment: Binding affinity at recombinant GABAA receptors (Ltk cells stably transfected)
T1 construct: expressed in transfected cells

[2] = biological target: T2, α2β3γ2 GABAA receptor (Homo sapiens, UniProt P18507+P47869); experiment: as above
T2 construct: expressed in transfected cells
T2 sequence (P47869 29-451): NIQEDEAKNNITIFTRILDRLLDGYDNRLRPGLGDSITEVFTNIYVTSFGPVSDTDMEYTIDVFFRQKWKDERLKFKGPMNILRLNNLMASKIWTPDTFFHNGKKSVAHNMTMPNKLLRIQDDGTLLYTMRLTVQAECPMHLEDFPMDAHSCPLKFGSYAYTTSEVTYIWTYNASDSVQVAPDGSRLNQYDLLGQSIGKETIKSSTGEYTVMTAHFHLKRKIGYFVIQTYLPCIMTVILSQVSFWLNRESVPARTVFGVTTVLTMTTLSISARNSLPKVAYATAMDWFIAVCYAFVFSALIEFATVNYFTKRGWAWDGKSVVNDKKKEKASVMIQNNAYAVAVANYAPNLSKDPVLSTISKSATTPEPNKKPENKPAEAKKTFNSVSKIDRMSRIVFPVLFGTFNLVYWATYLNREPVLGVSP
T2 sequence (P28472 26-473 partner): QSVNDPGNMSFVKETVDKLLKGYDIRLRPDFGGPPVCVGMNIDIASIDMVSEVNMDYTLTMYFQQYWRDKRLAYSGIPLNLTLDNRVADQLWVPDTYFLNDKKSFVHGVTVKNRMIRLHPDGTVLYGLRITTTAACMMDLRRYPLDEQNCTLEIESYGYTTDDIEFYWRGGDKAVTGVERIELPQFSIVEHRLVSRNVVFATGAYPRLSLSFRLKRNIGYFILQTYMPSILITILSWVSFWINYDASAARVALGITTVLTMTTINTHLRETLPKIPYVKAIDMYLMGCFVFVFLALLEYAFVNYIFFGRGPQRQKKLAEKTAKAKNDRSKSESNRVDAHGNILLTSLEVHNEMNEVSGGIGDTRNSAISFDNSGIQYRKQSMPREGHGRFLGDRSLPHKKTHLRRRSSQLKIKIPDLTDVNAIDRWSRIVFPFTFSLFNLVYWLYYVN
T2 sequence (P18507 40-475): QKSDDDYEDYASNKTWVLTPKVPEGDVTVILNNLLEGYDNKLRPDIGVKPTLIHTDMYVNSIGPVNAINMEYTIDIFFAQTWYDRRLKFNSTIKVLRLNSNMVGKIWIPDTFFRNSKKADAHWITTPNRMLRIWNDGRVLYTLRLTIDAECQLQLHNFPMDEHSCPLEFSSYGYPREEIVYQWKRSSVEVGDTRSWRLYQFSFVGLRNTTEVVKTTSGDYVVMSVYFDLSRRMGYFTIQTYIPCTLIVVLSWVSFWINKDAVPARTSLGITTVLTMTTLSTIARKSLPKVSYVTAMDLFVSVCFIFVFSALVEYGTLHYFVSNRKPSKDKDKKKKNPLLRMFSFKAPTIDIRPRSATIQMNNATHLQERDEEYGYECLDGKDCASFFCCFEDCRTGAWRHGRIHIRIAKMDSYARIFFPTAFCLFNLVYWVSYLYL

[3] = biological target: T3, α3β3γ2 GABAA receptor (Homo sapiens, UniProt P18507+P34903); experiment: as above
T3 construct: expressed in transfected cells
T3 sequence (P34903 29-492): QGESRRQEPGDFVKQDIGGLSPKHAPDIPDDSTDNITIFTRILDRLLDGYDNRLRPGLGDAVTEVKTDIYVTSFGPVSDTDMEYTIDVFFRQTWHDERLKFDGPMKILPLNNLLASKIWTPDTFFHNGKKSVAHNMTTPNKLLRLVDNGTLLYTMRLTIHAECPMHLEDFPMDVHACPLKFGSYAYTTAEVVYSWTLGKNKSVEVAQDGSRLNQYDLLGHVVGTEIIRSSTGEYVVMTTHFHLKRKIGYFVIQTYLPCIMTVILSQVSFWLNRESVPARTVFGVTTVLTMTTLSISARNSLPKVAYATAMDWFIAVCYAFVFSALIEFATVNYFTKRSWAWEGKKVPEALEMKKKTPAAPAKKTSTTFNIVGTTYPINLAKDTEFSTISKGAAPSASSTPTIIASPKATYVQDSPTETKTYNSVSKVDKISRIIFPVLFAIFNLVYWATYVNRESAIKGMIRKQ
T3 sequence (P28472 26-473 partner): as the sequence (P28472 26-473 partner) above
T3 sequence (P18507 40-475): as the sequence (P18507 40-475) above

[4] = biological target: T4, α5β3γ2 GABAA receptor (Homo sapiens, UniProt P18507+P31644); experiment: as above
T4 construct: expressed in transfected cells
T4 sequence (P31644 32-462): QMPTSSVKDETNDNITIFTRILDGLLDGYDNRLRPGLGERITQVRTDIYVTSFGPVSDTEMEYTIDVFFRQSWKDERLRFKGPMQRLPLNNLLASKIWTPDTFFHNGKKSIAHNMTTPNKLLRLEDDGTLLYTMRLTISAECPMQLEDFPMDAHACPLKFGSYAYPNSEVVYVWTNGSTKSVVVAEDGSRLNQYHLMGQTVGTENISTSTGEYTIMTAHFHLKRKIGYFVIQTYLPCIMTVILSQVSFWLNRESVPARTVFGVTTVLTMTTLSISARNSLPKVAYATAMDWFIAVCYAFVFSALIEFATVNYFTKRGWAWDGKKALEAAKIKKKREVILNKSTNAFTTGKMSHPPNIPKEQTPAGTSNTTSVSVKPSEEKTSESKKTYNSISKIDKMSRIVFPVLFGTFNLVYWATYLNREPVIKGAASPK
T4 sequence (P28472 26-473 partner): as the sequence (P28472 26-473 partner) above
T4 sequence (P18507 40-475): as the sequence (P18507 40-475) above

[5] = biological target: T5, α6β3γ2 GABAA receptor (Homo sapiens, UniProt P18507+Q16445); experiment: as above; settings: recombinant αxβ3γ2; read-out: Ki α6
T5 construct: expressed in transfected cells
T5 sequence (Q16445 20-453): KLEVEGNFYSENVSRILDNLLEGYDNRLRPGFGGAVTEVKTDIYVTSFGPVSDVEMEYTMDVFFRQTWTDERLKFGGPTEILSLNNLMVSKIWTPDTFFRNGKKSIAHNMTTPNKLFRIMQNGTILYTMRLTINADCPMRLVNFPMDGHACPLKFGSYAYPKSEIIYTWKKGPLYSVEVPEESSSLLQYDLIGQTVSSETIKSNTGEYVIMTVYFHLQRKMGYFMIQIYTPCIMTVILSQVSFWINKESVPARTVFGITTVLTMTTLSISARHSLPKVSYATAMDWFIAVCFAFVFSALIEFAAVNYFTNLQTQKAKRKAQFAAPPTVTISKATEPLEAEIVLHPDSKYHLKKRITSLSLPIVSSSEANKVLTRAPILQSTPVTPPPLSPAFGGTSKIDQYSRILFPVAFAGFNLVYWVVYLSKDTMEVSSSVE
T5 sequence (P28472 26-473 partner): as the sequence (P28472 26-473 partner) above
T5 sequence (P18507 40-475): as the sequence (P18507 40-475) above

[6] = biological target: wild type BDZ receptors (cerebral cortical membranes); experiment: Radioligand displacement at cerebral cortical membranes; format: binding; settings: read-out: Displacement of [3H] flunitrazepam in vitro, IC50; rat cerebral cortical membranes; mean of three or more experiments
Procedure: [^3H] […] In brief, rats were sacrificed by decapitation, and the cerebral cortex removed. […] Tissue was resuspended in an equal volume of buffer and recentrifuged. This procedure was repeated a total of three times and the tissue resuspended in 50 volumes of buffer. Incubations (1 mL) consisted of tissue (0.3 mL), drug solution (0.1 mL), buffer (0.5 mL) and radioligand (0.1 mL). […] The IC50 values were estimated using Hill plots.

[7] = tested on: GABAA α3β3γ2 receptors; experiment: Xenopus oocyte expression assay, modulation of GABA current; format: cell-based, rat; settings: saturating 1-10 μM modulator with EC50 GABA (30 μM); mean±S.D.
[8] = tested on: alcohol-preferring (P) rats; experiment: Operant self-administration, concurrent FR4 schedule for EtOH and saccharin; format: in vivo, rat; settings: for EtOH-maintained responding / saccharin-maintained responding: bilateral infusion 5-40 μg in NACC/caudate putamen (neuroanatomical control)
Procedure: Behavioral testing was conducted in 15 standard operant chambers (Coulbourn Instruments) equipped with two removable levers and two dipper fluid delivery systems enclosed in sound-attenuated cubicles as previously described (June et al., 1998a,b). A concurrent fixed-ratio schedule was employed to investigate the capacity of systemic and direct microinjections of 3-PBC in the CNS to modify EtOH and saccharin-maintained responding. The specific details of these procedures have recently been described (June et al., 1998; 1999; 2001). In brief, rats were initially trained to orally self-administer EtOH and water in daily 60 min sessions on a concurrent FRI schedule in a two-lever choice situation. After a period of stabilization on the FRI schedule, the response requirement was increased to a concurrent FR4 schedule and the water reinforcer was replaced with saccharin (0.025-0.05% w/v). The importance of alternative and concurrently presented reinforcers in examining the positive reinforcing properties of drugs of abuse has been discussed previously (Meisch and Lemaire, 1993; June et al., 2001; June in press).
3-PBC was administered 15 min before the operant session to allow for optimal absorption and CNS distribution. […] The duration of the operant sessions was 60 min, however, subjects were tested at 24 and 48 hour post drug administration to determine any residual drug effects. A minimum of 72-96 hours were allocated between drug treatments to permit animals to return to baseline levels. This period prevented confounding of drug treatments due to residual effects (for details see June et al., 1998b).
Guide cannulas were stereotaxically implanted bilaterally in the anterior (AP +0.48; ML ±1.6; DV −7.2, with 6° lateral angle) (n=8) and medial (AP −0.26; ML ±2.5; DV −7.0) (n=6) VP. The neuroanatomical control rats were bilaterally implanted in either the caudate putamen or NACC. The coordinates for the caudate putamen were AP +1.5; ML ±2.5; DV 4.2 (n=3). In the NACC group some rats were implanted in the shell [AP +1.4; ML +0.8; DV −6.0] (n=3) while others were implanted in the core [AP +1.4; ML ±1.7; DV −5.71] (n=3). All coordinates are given in millimeters relative to Bregma based on the Paxinos and Watson (1998) atlas. Subjects were given 7 days to recover from surgery before returning to training in the operant chamber. The 3-PBC infusions were delivered immediately before the operant session with a Harvard infusion pump in aCSF (composition in mM: NaCl, 120; KCl, 4.8; KH2PO4, 1.2; MgSO4, 1.2; NaHCO3, 25; CaCl2, 2.5; d-glucose, 10) as previously described (for details see June et al., 2001).
Statistical Analysis The operant maintained responding data were analyzed by a single factor repeated measures ANOVA with drug treatment (i.e., dose) as the independent factor. The dependent variables were EtOH and saccharin-maintained responding. Each dependent variable was analyzed separately. Post-hoc comparisons between individual drug treatments were made using the Newman Keuls Test in all experiments. In systemic studies, drug treatment comparisons were made against the no injection (e.g., baseline=BL) and Tween-20 vehicle control conditions. In the microinjection studies, drug treatment comparisons were made against the no injection control condition (e.g., baseline=BL) and aCSF control condition. All microinjection data were obtained and analyzed following correct histological verification under a light microscope. To determine the time course of antagonism across the 60 min session, a single factor ANOVA was conducted at each of the six-10 min intervals on the cumulative response data for the respective drug treatment conditions relative to the pooled controlled conditions. EtOH and saccharin maintained responding data were analyzed separately. Post-hoc analyses were performed on the cumulative interval data using the least significant difference (LSD) test. […]

[9] = tested on: P rats; experiment: EtOH and sucrose responding after oral (gavage) administration; format: in vivo, rat; settings: for responding for sucrose: oral (gavage) 75 mg/kg; for EtOH responding / EtOH responding 24 hours after administration: oral (gavage); for EtOH responding: βCCt 15 & 30 mg/kg, 3-PBC 30-75 mg/kg, naltrexone 30-75 mg/kg; for EtOH responding 24 hours after administration: βCCt 15 & 75 mg/kg
From the text: In this study we compared the suppressant effect of βCCt and 3-PBC with naltrexone, a currently used alcohol antagonist on the market. As it is shown in FIG. 29A-B, orally administered βCCt can reduce alcohol responding, however, the effects are not dose related. In addition, 24 hr after administration of βCCt, it continues to reduce alcohol responding with selected doses. […] The suppressant effects of naltrexone in reducing alcohol responding are also dissipated 24 hr after the administration. […] Unlike naltrexone, the suppressant effects observed by βCCt and 3-PBC are selective for alcohol, and not reinforcers in general.

[10] = tested on: selected rodent lines; experiment: Plus-maze test in selected rodent lines; format: in vivo; settings: particularly at moderate to high doses (>7.5 mg/kg)
[11] = tested on: mice; settings: Cox et al., 1998; cited from earlier work
[12] = bilateral infusion in ventral pallidum (VP), 3-PBC 0.5-40 μg, βCCt 5-40 μg
[13] = i.p. 15 min before 60 min session, 3-PBC 1-20 mg/kg, βCCt 5-40 mg/kg
[14] = i.p., 3-PBC 1-10 mg/kg, βCCt 5-40 mg/kg

T1 sequence (P14867 28-456): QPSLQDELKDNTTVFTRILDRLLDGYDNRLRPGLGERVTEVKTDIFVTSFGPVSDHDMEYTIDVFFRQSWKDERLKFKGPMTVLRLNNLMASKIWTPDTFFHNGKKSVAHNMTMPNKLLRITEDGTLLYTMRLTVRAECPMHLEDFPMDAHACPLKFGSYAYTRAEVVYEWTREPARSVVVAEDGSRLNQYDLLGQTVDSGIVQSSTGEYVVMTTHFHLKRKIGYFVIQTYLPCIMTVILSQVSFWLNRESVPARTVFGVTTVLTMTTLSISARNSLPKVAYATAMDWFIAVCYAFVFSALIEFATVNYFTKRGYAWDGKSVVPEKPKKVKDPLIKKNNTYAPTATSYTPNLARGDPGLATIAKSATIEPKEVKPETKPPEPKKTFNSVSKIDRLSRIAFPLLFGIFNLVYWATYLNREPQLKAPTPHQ
T1 sequence (P28472 26-473 partner): as the sequence (P28472 26-473 partner) above
T1 sequence (P18507 40-475): as the sequence (P18507 40-475) above

Row | Compound | Ki [5] [nM] | % of GABA response, α3 [7] [%] | EtOH-maintained responding [8] | saccharin-maintained responding [8] | saccharin-maintained responding, total session ([8]; bilateral infusion in VP) | EtOH-maintained responding, total session [8, 12] | EtOH-maintained responding, total session [8, 13] | saccharin-maintained responding, total session [8, 14] | responding for sucrose [9] | EtOH responding [9] | EtOH responding 24 hours after administration [9] | anxiolytic effects in the plus-maze test [10] | also measured
1 | CCCOc1cc2c(cn1)[nH]c1ccccc12.Cl [3-PBC, 3-Propoxy-β-carboline hydrochloride] | > 1000 | 119±6 | without effect | without effect | only the 40 μg dose significantly reduced saccharin responding | dose-dependently reduced | significant dose-related reduction | significant elevation | fails to alter responding for sucrose | dose-dependently reduces EtOH responding | dissipated | capable of producing anxiolytic effects | selectivity for α1 relative to α2 ([1]; binding selectivity): 9.8 fold; selectivity for α1 relative to α3 ([1]; binding selectivity): 13 fold; selectivity for α1 relative to α5 ([1]; binding selectivity): 111 fold; Ki ([1]; recombinant αxβ3γ2, read-out: Ki α1): 5.3 nM; Ki ([2]; recombinant αxβ3γ2, read-out: Ki α2): 52.3 nM; Ki ([3]; recombinant αxβ3γ2, read-out: Ki α3): 68.8 nM; Ki ([4]; recombinant αxβ3γ2, read-out: Ki α5): 591 nM; IC50 [6]: 11 nM; cumulative within session alcohol responding ([8]; VP infusion, initial 10 and 20 min intervals): significant reduction; saccharin-maintained responding, total session ([8]; i.p. 20 mg/kg): significantly suppressed; cumulative within session EtOH responding ([8]; i.p., first 10, 20 and 30 min intervals): suppressed the initiation of EtOH responding; response in pentylenetetrazole seizure model [11]: “neutral” antagonist-like response
2 | CC(C)(C)OC(=O)c1cc2c(cn1)[nH]c1ccccc12 [βCCt, β-carboline-3-carboxylate t-butyl ester] | > 1000 | 108±6 | none of the βCCt treatments altered | none of the βCCt treatments altered | did not alter | dose-dependently reduced | all doses significantly suppressed | without effect | fails to alter responding for sucrose | significantly reduces EtOH responding | significantly reduce EtOH responding | capable of producing anxiolytic effects | Ki [1]: 0.72 nM; fold more selective than flumazenil at α1 sites ([1]; binding selectivity): over 20 fold; fold more selective than zolpidem at α1 sites ([1]; binding selectivity): 3.5 fold; Ki [2]: 15 nM; Ki [3]: 18.9 nM; Ki [4]: 111 nM; suppression of EtOH responding 24 hr post-drug ([8]; i.p. 40 mg/kg, 24 hr post-drug administration): 76 % of control levels
